In patent publication US20190177371A1, “NOVEL MODULATORS OF MELANOCORTIN RECEPTORS” (ARIZONA BOARD OF REGENTS ON BEHALF OF THE UNIVERSITY OF …, priority 2014, published 2019):

Experiments:
hMC5R [1] = target: T1, hMC5R (Homo sapiens, UniProt P33032); assay: Adenylate cyclase (cAMP) assay in HEK293 cells expressing hMC5R
hMC1R [2] = target: T2, hMC1R (Homo sapiens, UniProt Q01726); assay: Adenylate cyclase (cAMP) assay in HEK293 cells expressing hMC1R
hMC4R [3] = target: T3, hMC4R (Homo sapiens, UniProt P32245); assay: Adenylate cyclase (cAMP) assay in HEK293 cells expressing hMC4R
T3 sequence (P32245 whole entry): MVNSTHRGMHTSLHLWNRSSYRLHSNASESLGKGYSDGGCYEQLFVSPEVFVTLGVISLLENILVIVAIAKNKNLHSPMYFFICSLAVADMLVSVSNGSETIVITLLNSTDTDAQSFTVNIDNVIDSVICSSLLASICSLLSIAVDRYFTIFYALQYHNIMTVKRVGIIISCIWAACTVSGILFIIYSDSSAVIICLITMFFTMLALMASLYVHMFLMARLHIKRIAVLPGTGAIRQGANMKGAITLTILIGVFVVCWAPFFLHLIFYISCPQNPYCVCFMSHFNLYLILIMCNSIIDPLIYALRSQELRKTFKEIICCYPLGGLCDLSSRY

hMC3R [4] = target: T4, hMC3R (Homo sapiens, UniProt P41968); assay: Competitive binding assay with [125I]-NDP-α-MSH on whole HEK293 cells expressing hMC3R
T4 sequence (P41968 whole entry): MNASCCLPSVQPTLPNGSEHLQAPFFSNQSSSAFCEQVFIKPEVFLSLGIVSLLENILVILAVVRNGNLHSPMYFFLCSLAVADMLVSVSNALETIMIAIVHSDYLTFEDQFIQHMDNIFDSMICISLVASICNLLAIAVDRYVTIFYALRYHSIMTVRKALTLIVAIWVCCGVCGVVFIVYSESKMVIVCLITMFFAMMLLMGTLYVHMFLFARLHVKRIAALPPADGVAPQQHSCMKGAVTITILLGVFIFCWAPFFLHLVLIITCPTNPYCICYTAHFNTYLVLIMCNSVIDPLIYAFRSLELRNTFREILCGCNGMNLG
Description: (§1) The pharmacological characterization for the binding efficiencies greater than 70% are defined as competitive binding, binding efficiency less than 70% are non-competitive binding.
(§2) Receptor Binding Assay. Competition binding experiments were carried out using both of cloned cell line and melanoma cells (A375, ATCC). The whole HEK293 cells stably expressing human MC1, MC3, MC4, and MC5 receptors as described before. […] The assay medium was subsequently removed, the cells were washed once with basic medium, and then lysed by the addition of 100 μL of 0.1M NaOH and 100 μL of 1% Triton X-100.

hMC3R [5] = target: T4, hMC3R; assay: Adenylate cyclase (cAMP) assay in HEK293 cells expressing hMC3R
hMC4R [6] = target: T3, hMC4R; assay: Competitive binding assay with [125I]-NDP-α-MSH on whole HEK293 cells expressing hMC4R
Description: as §1, §2

hMC1R [7] = target: T2, hMC1R; assay: Competitive binding assay with [125I]-NDP-α-MSH on whole HEK293 cells expressing hMC1R
Description: as §1, §2

hMC5R [8] = target: T1, hMC5R; assay: Competitive binding assay with [125I]-NDP-α-MSH on whole HEK293 cells expressing hMC5R
Description: as §1, §2

T1 sequence (P33032 whole entry): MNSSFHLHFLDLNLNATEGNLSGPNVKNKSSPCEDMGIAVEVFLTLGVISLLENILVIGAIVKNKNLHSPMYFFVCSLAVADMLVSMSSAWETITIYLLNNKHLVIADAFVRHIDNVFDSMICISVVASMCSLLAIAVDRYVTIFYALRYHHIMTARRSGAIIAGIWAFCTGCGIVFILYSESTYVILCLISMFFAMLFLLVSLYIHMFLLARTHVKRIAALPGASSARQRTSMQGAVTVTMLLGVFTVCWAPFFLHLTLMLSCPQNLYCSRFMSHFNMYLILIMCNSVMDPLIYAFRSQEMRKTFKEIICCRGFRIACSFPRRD
T2 sequence (Q01726 whole entry): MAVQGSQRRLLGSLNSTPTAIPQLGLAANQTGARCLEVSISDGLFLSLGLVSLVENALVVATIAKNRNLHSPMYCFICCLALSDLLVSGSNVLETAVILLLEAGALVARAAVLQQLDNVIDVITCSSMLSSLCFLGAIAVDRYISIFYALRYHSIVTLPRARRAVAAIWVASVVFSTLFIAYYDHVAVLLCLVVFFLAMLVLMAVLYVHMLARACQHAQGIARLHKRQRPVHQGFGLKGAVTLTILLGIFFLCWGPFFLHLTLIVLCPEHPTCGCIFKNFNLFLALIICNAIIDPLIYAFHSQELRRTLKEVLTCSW

functional (cAMP) activity at hMC5R (in words) (hMC5R [1])	functional (cAMP) activity at hMC1R (in words) (hMC1R [2])	functional (cAMP) activity at hMC4R (in words) (hMC4R [3])	binding affinity at hMC3R (in words) (hMC3R [4])	functional (cAMP) activity at hMC3R (in words) (hMC3R [5])	binding affinity at hMC4R (in words) (hMC4R [6])	binding affinity at hMC1R (in words) (hMC1R [7])	binding affinity at hMC5R (in words) (hMC5R [8])	Substance
moderate selective antagonist								Ac-Nle-c[Asp-(NMe)His-nal-Arg-(NMe)Trp-Lys]-NH2 [Peptide 13]
selective partial agonist activity	selective partial agonist activity							Ac-Nle-c[Asp-(NMe)His-nal-(NMe)Arg-(NMe)Trp-Lys]-NH2 [Peptide 24]
	full agonist activity	partial agonist						Ac-Nle-c[Asp-His-(NMe)nal-Arg-(NMe)Trp-(NMe)Lys]-NH2 [Peptide 18]
	potent agonist		increases	potent antagonist	decreases by 3 orders of magnitude			Ac-Nle-c[Asp-His-nal-(NMe)Arg-Trp-(NMe)Lys]-NH2 [Peptide 8]
					drastical loss of binding affinity			Ac-Nle-c[Asp-(NMe)His-(NMe)nal-Arg-Trp-Lys]-NH2 [Peptide 5]
no activities	no activities	no activities	good binding	no activities	good binding	good binding	good binding	Ac-Nle-c[Asp-(NMe)His-nal-Arg-(NMe)Trp-(NMe)Lys]-NH2 [Peptide 19]
	partial agonistic activities	partial agonistic activities		partial agonistic activities				Ac-Nle-c[Asp-His-(NMe)nal-(NMe)Arg-Trp-Lys]-NH2 [Peptide 14]
very selective antagonist			drastically lost		drastically lost	drastically lost		Ac-Nle-c[Asp-His-(NMe)nal-Arg-Trp-(NMe)Lys]-NH2 [Peptide 9]
	selective agonist activities							Ac-Nle-c[Asp-(NMe)His-nal-Arg-Trp-(NMe)Lys]-NH2 [Peptide 10]
all functional activities are abolished	all functional activities are abolished	all functional activities are abolished		all functional activities are abolished				Ac-Nle-c[Asp-His-(NMe)nal-(NMe)Arg-(NMe)Trp-Lys]-NH2 [Peptide 23]
universal antagonist	universal antagonist	universal antagonist		universal antagonist				Ac-Nle-c[Asp-(NMe)His-(NMe)nal-Arg-Trp-Lys]-NH2 [Peptide 16]
almost a universal antagonist activity	almost a universal antagonist activity	almost a universal antagonist activity		very weak activity				Ac-Nle-c[Asp-His-(NMe)nal-(NMe)Arg-Trp-(NMe)Lys]-NH2 [Peptide 20]
selective agonist	greater loss of functional activity							Ac-Nle-c[Asp-His-nal-Arg-(NMe)Trp-Lys]-NH2 [Peptide 3]
all functional activities are abolished	all functional activities are abolished	all functional activities are abolished		all functional activities are abolished				Ac-Nle-c[Asp-(NMe)His-(NMe)nal-Arg-Trp-(NMe)Lys]-NH2 [Peptide 22]
retains agonist activity								Ac-Nle-c[Asp-(NMe)His-nal-(NMe)Arg-Trp-(NMe)Lys]-NH2 [Peptide 21]
